Conditions: 323.15 K, Liquid, Vibrating tube method

CCCCCC(=O)OCC(COC(=O)CCCCC)(COC(=O)CCCCC)COC(=O)CCCCC [pentaerythritol tetrahexanoate]
Conditions | mass density [kg/m3]
616.8 kPa | 973.1
618.6 kPa | 973.1
620.6 kPa | 973.1
623.1 kPa | 973.3
625.3 kPa | 973.2
627.3 kPa | 973.1
629.2 kPa | 973.2
631.2 kPa | 973.1
633 kPa | 973.1
634.7 kPa | 973.1
637.3 kPa | 973.1
639.4 kPa | 973.1
641.7 kPa | 973
643.9 kPa | 973
659.4 kPa | 973.1
662 kPa | 973.2
664.3 kPa | 973.2
666.7 kPa | 973.1
668.8 kPa | 973.2
671.2 kPa | 973.2
674 kPa | 973.1
675.9 kPa | 973.1
678.5 kPa | 973.1
681.8 kPa | 973.2
684.1 kPa | 973.2
699.5 kPa | 973.1
702.1 kPa | 973.1
704.4 kPa | 973.1
707.2 kPa | 973.2
709.1 kPa | 973.2
712 kPa | 973.1
741.4 kPa | 973.1
744 kPa | 973.3
746.6 kPa | 973.1
749.6 kPa | 973.2
752.5 kPa | 973.1
755.1 kPa | 973.3
757.9 kPa | 973.2
760.3 kPa | 973.2
765.9 kPa | 973.2
768.5 kPa | 973.2
772.1 kPa | 973.2
774.9 kPa | 973.1
777.5 kPa | 973.3
780 kPa | 973.2
783.1 kPa | 973.2
785.3 kPa | 973.1
788.3 kPa | 973.3
791.4 kPa | 973.2
794.4 kPa | 973.2
796 kPa | 973.2
798.4 kPa | 973.3
815.2 kPa | 973.3
817.7 kPa | 973.3
821 kPa | 973.3
824.1 kPa | 973.4
827.1 kPa | 973.3
830.2 kPa | 973.2
833.5 kPa | 973.3
836.8 kPa | 973.2
839.5 kPa | 973.3
842.8 kPa | 973.2
845.5 kPa | 973.2
849.1 kPa | 973.3
851.9 kPa | 973.2
855.5 kPa | 973.3
871.5 kPa | 973.2
875.2 kPa | 973.2
877.8 kPa | 973.2
880.9 kPa | 973.3
884.5 kPa | 973.3
887.3 kPa | 973.2
890.8 kPa | 973.2
894.6 kPa | 973.2
897.6 kPa | 973.2
900.3 kPa | 973.2
904 kPa | 973.3
906.8 kPa | 973.3
910.8 kPa | 973.3
913.5 kPa | 973.3
920.1 kPa | 973.2
926.9 kPa | 973.3
930.6 kPa | 973.3
933.3 kPa | 973.3
936.1 kPa | 973.2
940 kPa | 973.3
942.9 kPa | 973.4
947.1 kPa | 973.3
950.7 kPa | 973.3
953.5 kPa | 973.3
957 kPa | 973.4
960.8 kPa | 973.3
963.6 kPa | 973.4
968.1 kPa | 973.2
971.9 kPa | 973.2
975.6 kPa | 973.4
978.9 kPa | 973.4
983 kPa | 973.3
987 kPa | 973.3
991 kPa | 973.4
995 kPa | 973.4
999.9 kPa | 973.3
1003.3 kPa | 973.4
1007 kPa | 973.4
1011.7 kPa | 973.4
1016 kPa | 973.4
1062.4 kPa | 973.4
1065.9 kPa | 973.3
1069.5 kPa | 973.4
1073.9 kPa | 973.3
1077.3 kPa | 973.4
1082 kPa | 973.5
1085.7 kPa | 973.4
1090.4 kPa | 973.5
1094.2 kPa | 973.5
1099 kPa | 973.5
1103 kPa | 973.5
1128.6 kPa | 973.4
1132.2 kPa | 973.4
1137.1 kPa | 973.4
1140.7 kPa | 973.5
1145.6 kPa | 973.5
1149.6 kPa | 973.5
1154.3 kPa | 973.5
1159 kPa | 973.5
1163.8 kPa | 973.5
1243.7 kPa | 973.6
1248 kPa | 973.6
1253.4 kPa | 973.5
1258.3 kPa | 973.4
1263.5 kPa | 973.5
1269.2 kPa | 973.5
1273.9 kPa | 973.7
1278.6 kPa | 973.5
1284.5 kPa | 973.6
1289.2 kPa | 973.6
1294.7 kPa | 973.5
1299.6 kPa | 973.6
1305.5 kPa | 973.5
1310 kPa | 973.5
1315.4 kPa | 973.5
1319.9 kPa | 973.5
1325.8 kPa | 973.5
1331.7 kPa | 973.6
1411.8 kPa | 973.6

— the NIST ThermoML archive (doi:10.1021/je060271a)
